{"source": "patent US5496808A", "about": "(priority 1991, dated 1996)", "key": {"[1]": {"system": "Disseminated P388/DX Johnson Leukemia", "assay": "Antitumor activity \"in vivo\" against disseminated P388/DX Johnson leukemia, resistant to Doxorubicin", "design": "species or system murine", "protocol": "^(7) 10^5 cell/mouse were injected i.v. on day 0.\n(§1) ^(4) Compounds were suspended in Tween 80 10% and injected i.p. one\n(§2) day after tumor transplantation.\n(§3) ^(5) Median survival time of treated mice/Median survival time of\n(§4) ^(6) No. of toxic deaths/total No. of mice."}, "[2]": {"system": "Ascitic P388 Leukemia", "assay": "Antitumor activity \"in vivo\" against ascitic P388 leukemia, sensitive to Doxorubicin", "design": "species or system murine", "protocol": "^(3) 10^6 cell/mouse were injected i.p. on day 0.\nas §1, §2, §3, §4"}, "[3]": {"system": "LoVo/DX (colon adenocarcinoma resistant to Doxorubicin)", "assay": "cells", "conditions": "for IC50: Homo sapiens, 4 h, read-out: Cytotoxicity IC50 LoVo/DX", "source_text": "(§5) Colony assay: 4 hr treatment\n(§6) ^(1) IC50 = concentration inhibiting 50% of colony formation\n^(2) R.I. = Resistance Index = (IC50 LoVo/DX)(IC50 LoVo)"}, "[4]": {"system": "LoVo (colon adenocarcinama)", "assay": "cells", "format": "cell-based, human", "conditions": "for IC50: Homo sapiens, read-out: Cytotoxicity IC50 LoVo", "source_text": "as §5, §6"}, "[5]": {"conditions": "1.2 mg/kg i.p. one day after tumor transplantation"}, "[6]": {"conditions": "1.6 mg/kg i.p. one day after tumor transplantation"}, "[7]": {"conditions": "2.1 mg/kg i.p. one day after tumor transplantation"}, "[8]": {"conditions": "2.8 mg/kg i.p. one day after tumor transplantation"}, "[9]": {"conditions": "3.7 mg/kg i.p. one day after tumor transplantation"}, "[10]": {"conditions": "1.0 mg/kg i.p. one day after tumor transplantation"}, "[11]": {"conditions": "1.4 mg/kg i.p. one day after tumor transplantation"}, "[12]": {"conditions": "2.0 mg/kg i.p. one day after tumor transplantation"}, "[13]": {"conditions": "1.9 mg/kg i.p. one day after tumor transplantation"}, "[14]": {"conditions": "2.5 mg/kg i.p. one day after tumor transplantation"}, "[15]": {"conditions": "0.33 mg/kg i.p. one day after tumor transplantation"}, "[16]": {"conditions": "0.5 mg/kg i.p. one day after tumor transplantation"}, "[17]": {"conditions": "0.75 mg/kg i.p. one day after tumor transplantation"}, "[18]": {"conditions": "22.0 mg/kg i.p. one day after tumor transplantation"}, "[19]": {"conditions": "10.0 mg/kg i.p. one day after tumor transplantation"}, "[20]": {"conditions": "15.0 mg/kg i.p. one day after tumor transplantation"}}, "note": "Read-outs that look alike come from different tables or passages of the source."}
{"compound": "CC(=O)[C@]1(O)Cc2c(O)c3c(c(O)c2[C@@H](O[C@H]2C[C@H](N(CCCl)CCCl)[C@H](OS(C)(=O)=O)[C@H](C)O2)C1)C(=O)c1ccccc1C3=O", "note": "[compound 1h, 4-demethoxy-4'-O-methansulfonyl-N,N-bis(2-chloroethyl)daunorubicin]", "values": [{"measurement": "T/C (median survival time of treated mice/controls × 100)", "setting": "[1]; [5]", "result": 133, "unit": "%"}, {"measurement": "TOX", "setting": "[1]; [5]", "result": "0/6"}, {"measurement": "T/C (median survival time of treated mice/controls × 100)", "setting": "[1]; [6]", "result": 144, "unit": "%"}, {"measurement": "TOX", "setting": "[1]; [6]", "result": "0/6"}, {"measurement": "T/C (median survival time of treated mice/controls × 100)", "setting": "[1]; [7]", "result": 185, "unit": "%"}, {"measurement": "TOX", "setting": "[1]; [7]", "result": "0/6"}, {"measurement": "T/C (median survival time of treated mice/controls × 100)", "setting": "[1]; [8]", "result": 220, "unit": "%"}, {"measurement": "TOX", "setting": "[1]; [8]", "result": "0/6"}, {"measurement": "T/C (median survival time of treated mice/controls × 100)", "setting": "[1]; [9]", "result": 250, "unit": "%"}, {"measurement": "TOX", "setting": "[1]; [9]", "result": "0/6"}, {"measurement": "activity when tested on resistant Leukemia", "setting": "[1]; P388 resistant to Doxorubicin (Johnson)", "result": "high activity"}, {"measurement": "T/C (median survival time of treated mice/controls × 100)", "setting": "[2]; [10]", "result": 184, "unit": "%"}, {"measurement": "TOX", "setting": "[2]; [10]", "result": "0/12"}, {"measurement": "T/C (median survival time of treated mice/controls × 100)", "setting": "[2]; [11]", "result": 217, "unit": "%"}, {"measurement": "TOX", "setting": "[2]; [11]", "result": "0/6"}, {"measurement": "T/C (median survival time of treated mice/controls × 100)", "setting": "[2]; [12]", "result": 233, "unit": "%"}, {"measurement": "TOX", "setting": "[2]; [12]", "result": "1/6"}, {"measurement": "T/C (median survival time of treated mice/controls × 100)", "setting": "[2]; [8]", "result": 78, "unit": "%"}, {"measurement": "TOX", "setting": "[2]; [8]", "result": "6/6"}, {"measurement": "R.I. = Resistance Index (IC50 LoVo/DX)(IC50 LoVo)", "setting": "[3]; LoVo/DX versus LoVo, colony assay: 4 hr treatment", "result": 3.3}, {"measurement": "Cytotoxicity IC50 LoVo/DX", "setting": "[3]; LoVo/DX, colony assay: 4 hr treatment", "result": 0.014, "unit": "µg/mL"}, {"measurement": "activity on the doxorubicin-resistant cell line compared with 4-demethoxydaunorubicin and Doxorubicin", "setting": "[3]; LoVo/DX, in comparison with 4-demethoxydaunorubicin (3b) and Doxorubicin (3c)", "result": "striking higher activity"}, {"measurement": "Cytotoxicity IC50 LoVo", "setting": "[4]; colony assay: 4 hr treatment", "result": 0.0043, "unit": "µg/mL"}]}
{"compound": "CC(=O)[C@]1(O)Cc2c(O)c3c(c(O)c2[C@@H](O[C@H]2C[C@H](N)[C@H](O)[C@H](C)O2)C1)C(=O)c1ccccc1C3=O", "note": "[4-demethoxydaunorubicin]", "values": [{"measurement": "T/C (median survival time of treated mice/controls × 100)", "setting": "[1]; [13]", "result": 106, "unit": "%"}, {"measurement": "TOX", "setting": "[1]; [13]", "result": "0/10"}, {"measurement": "T/C (median survival time of treated mice/controls × 100)", "setting": "[1]; [14]", "result": 89, "unit": "%"}, {"measurement": "TOX", "setting": "[1]; [14]", "result": "0/10"}, {"measurement": "T/C (median survival time of treated mice/controls × 100)", "setting": "[2]; [15]", "result": 142, "unit": "%"}, {"measurement": "TOX", "setting": "[2]; [15]", "result": "0/27"}, {"measurement": "T/C (median survival time of treated mice/controls × 100)", "setting": "[2]; [16]", "result": 160, "unit": "%"}, {"measurement": "TOX", "setting": "[2]; [16]", "result": "0/28"}, {"measurement": "T/C (median survival time of treated mice/controls × 100)", "setting": "[2]; [17]", "result": 163, "unit": "%"}, {"measurement": "TOX", "setting": "[2]; [17]", "result": "4/28"}, {"measurement": "IC50", "setting": "[3]; LoVo/DX", "result": 0.048, "unit": "µg/mL"}, {"measurement": "R.I. = Resistance Index (IC50 LoVo/DX)(IC50 LoVo)", "setting": "[3]; human, lovo/dx vs lovo, 240 min", "result": 12.0}, {"measurement": "IC50", "setting": "[4]; 4 h", "result": 0.004, "unit": "µg/mL"}]}
{"compound": "COc1cccc2c1C(=O)c1c(O)c3c(c(O)c1C2=O)C[C@@](O)(C(=O)CO)C[C@@H]3O[C@H]1C[C@H](N)[C@H](O)[C@H](C)O1", "note": "[Doxorubicin, doxorubicin]", "values": [{"measurement": "TOX", "setting": "[1]; 16.9 mg/kg i.p. one day after tumor transplantation", "result": "0/6"}, {"measurement": "T/C (median survival time of treated mice/controls × 100)", "setting": "[1]; [18]", "result": 94, "unit": "%"}, {"measurement": "TOX", "setting": "[1]; [18]", "result": "3/6"}, {"measurement": "T/C (median survival time of treated mice/controls × 100)", "setting": "[2]; [19]", "result": 299, "unit": "%"}, {"measurement": "TOX", "setting": "[2]; [19]", "result": "0/10"}, {"measurement": "T/C (median survival time of treated mice/controls × 100)", "setting": "[2]; [20]", "result": 90, "unit": "%"}, {"measurement": "TOX", "setting": "[2]; [20]", "result": "3/6"}, {"measurement": "IC50", "setting": "[3]; LoVo/DX", "result": 4.98, "unit": "µg/mL"}, {"measurement": "IC50", "setting": "[4]; colony assay: 4 hr treatment", "result": 0.0825, "unit": "µg/mL"}]}
